The values below come from patent US8404747B2, “Compositions and methods for modulating interaction between polypeptides” (The General Hospital Corporation, priority 2004, dated 2013).

SMILES strings stand for the structures. pIC50: −log10 of the molar value. Like-named read-outs stand apart in the source and are kept apart here.

Series [1] relates to SP1 trancription factor binding motif (6XSP1) promoter. Put plainly: 6XSP1 luciferase transcription-based assay in 111Q/111Q striatum double knock-in cells. The series is classed as cell-based, mouse. To be noted: 6XSP1 luciferase reporter; for transcription activation: CG4 among CG series, less potent than C9-4. The method, then: FIGS. 1A-1C. FIG. 1A is a bar graph showing luciferase expression in Sp1-luc/111Q striatum double knock-in cells following treatment with different compounds, as indicated. Fluorescence was measured 24 hours after addition of compound. FIG. 1B is a bar graph as described in FIG. 1A. Fluorescence was measured 48 hours after addition of compound. FIG. 1C is a bar graph as described in FIG. 1A. Fluorescence was measured 72 hours after addition of compound.
We conducted structure activity relationship (SAR) studies to optimize transcription activation. We developed a novel transcription-based assay for this purpose. A luciferase reporter gene was stably integrated into 111Q/111Q striatum double knock-in cells and constitutively expressed under control of a promoter containing six copies of the SP1 trancription factor binding motif (6XSP1). In this system, C9 was determined to have an EC200 of 7.5 μM.
A general note: In a reporter assay the amount or activity of a reporter protein is the signal.

Series [2] relates to aggregation of 103Q in PC12 cells. Put plainly: polyQ (103Q) aggregation in ecdyson-inducible PC12 cells. To be noted: Rattus norvegicus, PC-12. The series is classed as cell-based, rat. Here is the method: To study the inhibitors we identified using the yeast screen in mammalian cells, we employed ecdyson-inducible rat phaeochromocytoma (PC12) cells. Compounds were tested in two clones, 14A2/5 and 14A2/6, with highest aggregation rate. We incubated undifferentiated PC12 cells with muristerone A to induce 103Q expression, and we exposed the cells to compounds at concentrations ranging from 1 to 10 μM. […] All compounds were non-toxic except C2, which was toxic at concentrations higher than 5 μM.
We tested these analogs at concentrations ranging from 0.025 μM to 5.0 μM for their effects on polyQ aggregation in PC12 cells. Among 24 analogs of C1; 28 analogs of C2; 24 analogs of C3, and 53 analogs of C4, we identified several potent inhibitors of polyQ aggregation. From our C2 focus library, we isolated compound C2-8 (B2 in Table 2), which inhibits polyQ aggregation with an IC50 value 50 nM. We also identified C2-10 (B6 in Table 2) and C2-11 (M16 (formula V(n)) in Table 5), and B7, B8 and B9 in Table 2. From our C3 focus library, we isolated compound C3-5 (M22 (formula V(t)) in Table 5) (having an IC50 value of 100 nM) and compound C3-6 (M17 (formula V(o)) in Table 5) (having an IC50 value of 5 μM). From our C4 library, we isolated compound C4-7 (A31 in Table 1), which has an IC50 value 100 nM. We also identified C4-34 (A3 in Table 1).

The next series relates to htt103Q-EGFP. Nature of the series: PC12 htt103Q-EGFP fluorescence assay. To be noted: PC12 cells. The series is classed as cell-based. The source says:
A PC12 cell line was engineered to express extended polyQ under the control of an ecdysone-inducible promoter. In the assay cell line, an N-terminal fragment of htt containing an extended polyQ tract was stably expressed as a fusion with EGFP (htt103Q-EGFP), from the pIND vector. Expression of extended polyQ in these cells was controlled by addition of an ecdysone analog, in this case muristerone A. In this assay, EGFP fluorescence directly correlated with htt103Q-EGFP expression levels. This system was designed to assess the effects of specific compounds on overall levels of extended polyglutamines in cells, using a simple fluorescent-based read-out.

The subject of series [3] is HD Q51 aggregates in Cos1 cells. Nature of the series: HD Q51 aggregation in transfected Cos1 cells, cellulose acetate membrane trap. The series is classed as cell-based. Conditions: Chlorocebus aethiops, COS-1; Cos1 cells transfected with HD Q51; read-out: IC50, polyQ aggregation (retained polyQ on membrane). The method, then:
The inhibitory activity we observed with C1-C4 in the PC12 cell model described above was confirmed in Cos1 cells transiently transfected with a CMV promoter-based DNA construct that encodes an Htt exon I fragment of Huntington's disease protein (Htt)) having 51 consecutive glutamine residues (HD Q51). When expressed in Cos1 cells, HD 51Q polypeptides readily form aggregates. Transfected Cos1 cells were incubated with C1-C4 compounds in culture medium and lysed. The lysates were then heat-denatured in SDS and passed through a cellulose acetate membrane, which captures aggregated, but not soluble polypeptides. Polyglutamine aggregates trapped on membranes were detected by immunostaining with antibody specific to extended polyQ. Pre-incubation of cells with compounds C1, C3, and C4 decreased the amount of retained polyQ, indicating inhibitory effects on polyQ aggregation. The IC50 for compound C1 was 10 μM and the IC50 for compounds C3 and C4 was 5 μM. As C2 was toxic for Cos1 cells, its effect on aggregation was not determined.

A further series has as its system cells. Nature of the series: nonspecific toxicity to cells. The series is classed as cell-based.
A further series deals with HDAc. Nature of the series: HDAc activity. Type of series: biochemical. To be noted: at high concentrations; down-regulation of HDAc 5.
In another series the test system is R2/6 HD mice. Conditions: cited from earlier work.
In series [4] the test system is mutant Huntingtin transgene (htt). Put plainly: transgene (mutant htt, extended polyQ) expression in inducible PC12 cells. To be noted: PC12 cells, with scriptaid. The series is classed as cell-based, rat. The source says: (§1) The compound C9 (A33 in Table 1) has structural similarity to the histone deacetylase (HDAc) inhibitor, scriptaid (6-(1,3-Dioxo-1H,3H-benzo[de]isoquinolin-2-yl)-N-hydroxyhexanamide) (Su et al., Cancer Res. 60:3137, 2000; A5 in Table 1). We observed the most dramatic effect on expression level by C9 and scriptaid in the PC12 cell line 14A2/6 expressing the extended polyQ mutant htt(104Q). The effect of C9 on the down-regulation of polyQ expression, was similar to cystamine, a drug that has shown efficacy in a mouse model for Huntington's Disease (HD). […] 14A2/6 cells were at least 5-fold more responsive to chemical treatment than other cell lines tested.
Transcriptional dysregulation is a hallmark of HD. […] Expression of the polypeptide was under control of an inducible ecdysone receptor (EcR)-based promoter.

The subject of another series is PC12 cells. Put plainly: rescue from scriptaid-dependent synthetic lethality in PC12 cells. The series is classed as cell-based, rat.
Source text: as §1

Series [5] relates to polyQ-containing polypeptides. Nature of the series: aggregation of polyQ-containing polypeptides, assay not specified.
Series [6] relates to polyQ aggregates (HD Q150) in neurons of R6/2 mouse brain slices. Nature of the series: polyQ aggregation in R6/2 brain slice cultures. The series is classed as cell-based. To be noted: 3-week time point. The method, then: The effects of the selected compounds on polyQ aggregation in neuronal tissues were assessed in brain slice cultures from the transgenic mouse R6/2 model of HD. R6/2 mice ubiquitously express human Huntingtin exon I containing 150Q (HD Q150), which causes neuropathology resembling key neurological changes in HD patients. Formation of neuronal polyQ aggregates precedes pathological behavioural changes in R6/2 mice. An organotypic slice culture assay has been developed in order to establish an ex vivo system that closely models the process of aggregation occurring in R6/2 mouse brains. […] The potency of any aggregate inhibitor can be assessed directly in neurons in brain slices (thus bypassing the blood brain barrier, the major obstacle to test compounds in neuronal tissues).
Aggregation in brain slice cultures was assessed during four weeks using three parameters: (1) the number of aggregates per square millimeter, (2) the density of individual aggregates, and (3) the size of the aggregates. These parameters can be assessed in any of the assays described herein. […] To obtain statistically significant data, 20 sections for each sample were quantified with a macro computer program (Paul Wetton at Image Associates, UK), which measured aggregate count, aggregate density and aggregate size. […]

Series [7] deals with T1, Recombinant HD Q51 polypeptide (Homo sapiens, UniProt P42858, INS38QQQQQQQQQQQQQQQQQQQQQQQQQQQQQQ).
T1 construct: made in house
Nature of the series: cell-free trap assay of purified polyQ. Type of series: biochemical. Conditions: cell-free trap assay; read-out: IC50, aggregation of purified polyQ. The method, then:
To determine whether C2 could directly interfere with polyQ aggregation, we reproduced this process in vitro and assayed the inhibitory effects of the compounds in a cell-free trap assay. Recombinant HD Q51 polypeptide, purified from bacteria, was incubated in the presence or in the absence of C2 for a time sufficient to allow aggregation. Then, upon heat-denaturation in SDS buffer, samples were filtered through a cellulose acetate membrane. Harsh denaturation conditions separated unaggregated soluble peptides, which passed through the membrane, and insoluble aggregates, which were retained on the membrane. The polyQ aggregates trapped on the membrane were subsequently immunostained and quantified.
Congo Red, which is structurally unrelated to C2-8, was used as a control.

Setting [8] is: PC12 cells, focus library analogs, 0.025 μM to 5.0 μM, read-out: IC50, polyQ aggregation.
[9] abbreviates: PC12 clones 14A2/5 and 14A2/6, muristerone A induced, 1 to 10 μM, read-out: IC50, aggregation of 103Q.

As usually defined, the pIC50 is the IC50 on a negative log10 scale, so that one unit is a factor of ten.

T1 sequence (P42858 with tags, fused parts or gaps with the stated changes): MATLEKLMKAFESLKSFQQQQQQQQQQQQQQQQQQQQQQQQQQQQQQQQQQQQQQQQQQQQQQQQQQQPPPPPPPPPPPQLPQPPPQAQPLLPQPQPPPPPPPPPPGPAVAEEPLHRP

Regarding `O=C1c2cccc3cccc(c23)C(=O)N1CCNCO` [Compound C9-3, 2-[2-(Hydroxymethyl-amino)-ethyl]-benzo[de]isoquinoline-1,3-dione], the transcription activation result in [1] is “did not effectively activate transcription”.

`O=C1c2cccc3c(N4CCCCC4)ccc(c23)C(=O)N1CO` [Compound C4-7, 2-Hydroxymethyl-6-piperidin-1-yl-benzo[de]isoquinoline-1,3-dione]: the pIC50 in series [2] (setting [8]) was 7.00.

For the molecule `CCN(CC)C(=O)c1sc(NC(=O)c2ccc(F)cc2)c(C(=O)OC(C)C)c1C` [Compound D3, 5-Diethylcarbamoyl-2-(4-fluoro-benzoylamino)-4-methyl-thiophene-3-carboxylic acid isopropyl ester], the “effect on protein aggregation” value with htt103Q-EGFP is “facilitators of protein aggregation”.

Turning to `CC/C(=C/c1sc2ccc3ccccc3c2[n+]1CCCS(=O)(=O)[O-])SC` [Compound C3, 3-[2-(2-Methylsulfanyl-but-1-enyl)-naphtho[1,2-d]thiazol-1-yl]-propane-1-sulfonic acid anion], the pIC50 in [2] (setting [9]) and in series [3] was 5.30 each time.

Consider `c1ccc(-c2nc3cnc4ccccc4c3s2)cc1` [Compound C3-6, 2-Phenyl-thiazolo[4,5-c]quinoline], for which, in series [2] (setting [8]), the pIC50 was 5.30.

Consider `CN(C)CCN1C(=O)c2cccc3cccc(c23)C1=O` [Compound C9-1B, 2-(2-Dimethylamino-ethyl)-benzo[de]isoquinoline-1,3-dione], for which the “range of weak nonspecific toxicity” value in the series on cells was in the range of 1.25 to 5.0 µM. For the same molecule, the “EC200, transcription activation” value in series [1] is reported as 50 nM.

`CCN1C(=O)c2cccc3c(NC(C)=O)ccc1c23` [CG4, N-(1-Ethyl-2-oxo-1,2-dihydro-benzo[cd]indol-6-yl)-acetamide]: the transcription activation result in [1] is given as “most potent transcriptional activator”.

As for `O=C1c2cccc3cccc(c23)C(=O)N1CCN1CCCCC1` [Compound C9-4, 2-(2-Piperidin-1-yl-ethyl)-benzo[de]isoquinoline-1,3-dione], the HDAc inhibitory activity result with HDAc is “indirect HDAc inhibitory activity”.

Turning to `O=C1c2cccc3c(N4CCOCC4)ccc(c23)C(=O)N1Cc1ccccc1` [Compound C4, 2-Benzyl-6-morpholin-4-yl-benzo[de]isoquinoline-1,3-dione], the pIC50 is 5.60 in series [2] (setting [9]) and 5.30 in [3].

For `NCCSSCCN` [cystamine, reference compound], in the series with R2/6 HD mice, the protein aggregation result is “blocked protein aggregation” and the survival entry is listed as “prolonged the survival”. Besides, the “effect on scriptaid-stimulated expression and aggregation” value in series [4] is recorded as “reversed the stimulatory effect”. Besides, the “rescue from scriptaid-dependent synthetic lethality” value in the series with PC12 cells is recorded as “rescued”.

Turning to `CN(C)CCCN1C(=O)c2cccc3cccc(c23)C1=O` [Compound C91, 2-(3-Dimethylamino-propyl)-benzo[de]isoquinoline-1,3-dione], the effect on aggregation result in [5] is reported as “facilitate protein-protein aggregation”. Besides, the “EC200, transcription activation” value in [1] came out at 4000 nM.

In turn, `O=C(Nc1ccc(Br)cc1)c1cccc(S(=O)(=O)Nc2ccc(Br)cc2)c1` [Compound C2-8, N-(4-Bromo-phenyl)-3-(4-bromo-phenylsulfamoyl)-benzamide] gave a concentration inhibiting aggregates intensity and area in [6] of 10 µM. The pIC50 in series [2] (setting [8]) was 7.30; in series [7] it was 4.60.

For `CN(C)CCN1C(=O)c2ccc(Cl)c3c(Cl)ccc(c23)C1=O` [Compound C1, 6,7-Dichloro-2-(2-dimethylamino-ethyl)-benzo[de]isoquinoline-1,3-dione], the pIC50 in [2] (setting [9]) and in [3] was 5.00 throughout.

With `CCOC(=O)c1sc(NC(=O)c2cc(S(N)(=O)=O)c(Cl)cc2Cl)c(C(=O)OCC)c1C` [Compound D4, 5-(2,4-Dichloro-5-sulfamoyl-benzoylamino)-3-methyl-thiophene-2,4-dicarboxylic acid diethyl ester], the “effect on protein aggregation” value with htt103Q-EGFP is reported as “inhibit protein aggregation”.
